Measurements reported in ChEMBL document CHEMBL3046128, “Sustainable synthesis of flavonoid derivatives, QSAR study and insecticidal activity against the fall armyworm, Spodoptera frugiperda (Lep.: Noctuidae)” (2010).

Test system: Spodoptera frugiperda
Assay: Insecticidal activity against first-instar larval-stage of Spodoptera frugiperda (fall armyworm) strain corn in compound-pretreated corn leaves assessed as mortality rate at 2000 mg/kg
Assay type: functional

Work on `O=c1cc(-c2ccccc2)oc2ccc(Br)cc12` [6-BROMOFLAVONE] yielded an LT50 of 43.86 h and a log10LT50 of 1.642.

In the case of `O=c1cc(-c2ccccc2)oc2ccc(Cl)cc12` [6-CHLOROFLAVONE], the LT50 is reported as 53.36 h and the log10LT50 is reported as 1.727.

`Cc1ccc2oc(-c3ccccc3)cc(=O)c2c1` [6-METHYLFLAVONE] gave an LT50 of 93 h and a log10LT50 of 1.968.

For `O=c1cc(-c2ccccc2)oc2cc(Br)ccc12` [7-BROMOFLAVONE], the LT50 was 89.73 h and the log10LT50 was 1.953.

`O=c1cc(-c2ccccc2)oc2cc(Cl)ccc12` [7-CHLOROFLAVONE] gave an LT50 of 29.33 h and a log10LT50 of 1.467.

For `O=c1cc(-c2ccccc2)oc2cc(F)ccc12` [7-FLUOROFLAVONE], the LT50 was 63.76 h and the log10LT50 was 1.805.

`O=c1cc(-c2ccccc2)oc2cc(O)ccc12` [7-HYDROXYFLAVONE] showed an LT50 of 106.94 h and a log10LT50 of 2.029.

Work on `COc1ccc2c(=O)cc(-c3ccccc3)oc2c1` [7-METHOXYFLAVONE] yielded an LT50 of 114.38 h and a log10LT50 of 2.058.

For `Cc1ccc2c(=O)cc(-c3ccccc3)oc2c1` [7-METHYLFLAVONE], the LT50 was 105.46 h and the log10LT50 was 2.023.

Compound `O=c1ccoc2ccccc12` [CHROMONE] has an LT50 of 55.42 h and a log10LT50 of 1.744.

Work on `O=C1CC(c2ccccc2)Oc2ccccc21` (stereo not given) [FLAVANONE] yielded a log10LT50 of 1.656.

For `O=c1cc(-c2ccccc2)oc2ccccc12` [FLAVONE], the LT50 was 51.19 h and the log10LT50 was 1.709.

With `O=c1c2ccccc2oc2ccccc12` [XANTHONE] the LT50 was 53.78 h and the log10LT50 was 1.731.
